# From US20210347813A1, “COMPOUNDS WITH HIV MATURATION INHIBITORY ACTIVITY” (priority 2018, published 2021)
# What was measured:
# [1] = system: HIV; details: cited from earlier work
# [2] = Rat PK after single intramuscular (IM) administration of prodrugs, parent MI #1 measured in plasma; assay type: in vivo; parameters: unit not given here; details: male SD rats, IM 20 mg/kg
# Source text: FIG. 2 is a concentration vs time curve of the plasma concentrations of parent MI #1 following a single Intramuscular (IM) administration of the Prodrugs and parent MI #1 to male SD rats. […] Additional pharmacokinetic data collected from the same experiments summarized in FIG. 2 is contained in the table below.
# Animal strain: Sprague Dawley (SD) rat, purchased from Shanghai SLAC Laboratory Animal Co., Ltd. Sex: male; Age: 6-8 weeks; BW: 200-250 g, N=30 rats (N=3 per prodrug); Food status: Free access to food and water for the entire in-life phase.
# Dose: 20 mg/kg (2 mL/kg, 10 mg/mL), IM injection; Formulation: 1% Kolliphor P188+4.5% Mannitol+94.5% Milli-Q Water;
# N=3 rats/time point for each compound via IM administration
# Sampling at 0.5, 1, 3, 5 and 7 hr, 1, 2, 3, 4, 5, 6 and 7 days post dose then 2×/week for a total of 8 weeks, 12*8 time points, serial bleeding for plasma only.
# * Weekly interim analysis of the plasma samples (12 time points) to get an early read on the PK of the construct Blood collection and processing: The animal was restrained manually and approximately 150 μL blood per time point was collected in tubes containing K2EDTA anticoagulant. The sample was centrifuged at 2200 g for 10 min at 2-8° C. for plasma. The plasma samples were stored immediately at −70° C.
# LC-MS/MS method was developed to quantitate both prodrugs and parent in plasma. The samples were analyzed in duplicate. Two sets of standard curves and three levels of QCs were run in each plate. Both the standards and QCs were run in duplicate.
# WinNonlin V 6.4 statistics software (Pharsight Corporation, California, USA) was used to generate pharmacokinetics parameters (Tmax, Cmax, T1/2, AUC, MRT etc).
# [3] = Single dose mouse PK study, oral dose of prodrug or parent, parent MI #3 measured; assay type: in vivo; details: male CD1 mice, PO 5 mg/kg
# Experimental: A single dose mouse PK study was conducted following an oral dose of the prodrug that was prepared as Example 1, being dosed and measuring parent maturation inhibitor (MI) #3, and compared to PK parameters with Parent MI #3 being dosed in male CD1 mice. In the current study, the formulation for parent MI #3 was 0.5% Methocel A4M:0.1% Tween 80:99.4% water. For the prodrug of Example 1, the formulation was 2% Dimethylacetamide:10% ethanol: 87.5% PEG 400:0.5% Tween 80.
# Following oral administration of the prodrug, all prodrug concentrations at all timepoints were BLQ. As shown in the table below the exposure of the parent MI #3 obtained from dosing the prodrug was higher than that seen with dosing a crystalline suspension of the parent MI #3.
# [4] = Mouse PK after subcutaneous (SQ) suspension doses, MI #3 measured in plasma; assay type: in vivo; details: male CD-1 mice, SQ 20 mg/kg suspension, MI Parent #3 measured in plasma
# Experimental: FIG. 1 is a graph of concentration vs. time from plasma of MI #3 in ng/mL vs time in hours following subcutaneous (SQ) doses of MI3 # or the prodrugs from Examples 3, 4, and 5 as suspensions in 1% Kolliphor P 188/2% PEG 3350/3.5% Mannitol/93.5% water at 20 mg/kg to male CD-1 mice. […] Exposure of Parent MI #3 decreased 23-fold, 16-fold, and 3-fold after administration of Example 3, 4 and 5, respectively. The presence of the prodrugs was not observed in plasma. Although the exposure is lower than when dosed with parent itself, the half-life of Parent MI #3 is longer after administration of all three prodrugs showing the potential to be useful for less frequent dosing.
# Subcutaneous (SQ) doses of each of the compounds from Examples 3, 4, and 5 as suspensions (Dose conc. 4 mg/mL, Dose volume 5 mL/kg) in 1% Kolliphor P 188/2% PEG 3350/3.5% Mannitol/93.5% water at 20 mg/kg to 3 male CD-1 mice (Cr1:CD1 (ICR)) Charles River Laboratories, 25-30gs at dose initiation, age as appropriate for weight. The concentration of Parent MI #3 and prodrugs were measured in the plasma of animals of all three groups at time points of 0.5, 1, 3, 5, 7, 24, 48, 72, 96, 120, 144, and 168 hours. The collection conditions were K2EDTA and the volume/timepoint was 30 μL. The presence of the prodrugs was not observed in plasma for any group.
# LC-MS/MS methods were developed to quantitate both prodrugs and parent in plasma. The samples were analyzed in duplicate. Two sets of standard curves and three levels of QCs were run in each plate. Both the standards and QCs were run in duplicate. The table below is a summary of the protocols and guidance that was supplied to the scientists who carried out the experiments.
# [5] = MI Parent #3 mouse PK, IV solution; assay type: in vivo; details: dose 1 (printed mg)
smiles,measurement,setting,value
C=C(C)[C@@H]1CC[C@]2(C(=O)O)CC[C@]3(C)[C@H](CC[C@@H]4[C@@]5(C)CC[C@H](OC(=O)CC(C)(C)C(=O)O)C(C)(C)[C@@H]5CC[C@]43C)[C@@H]12 [Bevirimat],reduction of HIV viral load (mean),"[1]; patients with trough levels >=20 μg/mL and no key baseline Gag polymorphisms at Q369, V370 or T371",1.3 log10/mL
same,viral load reduction vs patients without Gag polymorphisms,"[1]; users with Gag polymorphisms at Q369, V370 or T371",significantly lower load reductions
"C=C(C)[C@@H]1CC[C@]2(NCCN3CCS(=O)(=O)CC3)CC[C@]3(C)[C@H](CC[C@@H]4[C@@]5(C)CC=C(C6=CC[C@@](CF)(C(=O)OCOC(=O)CCCCC)CC6)C(C)(C)[C@@H]5CC[C@]43C)[C@@H]12 [Example 18, (Hexanoyloxy)methyl (R)-4-((1R,3aS,5aR,5bR,7aR,11aS,11bR,13aR,13bR)-3a-((2-(1,1-dioxidothiomorpholino)ethyl)amino)-5a,5b,8,8,11a-pentamethyl-1-(prop-1-en-2-yl)-2,3,3a,4,5,5a,5b,6,7,7a,8,11,11a,11b,12,13,13a,13b-octadecahydro-1H-cyclopenta[a]chrysen-9-yl)-1-(fluoromethyl)cyclohex-3-ene-1-carboxylate]",AUCINF (day),[2],2100
"C=C(C)[C@@H]1CC[C@]2(NCCN3CCS(=O)(=O)CC3)CC[C@]3(C)[C@H](CC[C@@H]4[C@@]5(C)CC=C(C6=CC[C@@](CF)(C(=O)OCOC(=O)CCCCCCC)CC6)C(C)(C)[C@@H]5CC[C@]43C)[C@@H]12 [Example 19, (Octanoyloxy)methyl (R)-4-((1R,3aS,5aR,5bR,7aR,11aS,11bR,13aR,13bR)-3a-((2-(1,1-dioxidothiomorpholino)ethyl)amino)-5a,5b,8,8,11a-pentamethyl-1-(prop-1-en-2-yl)-2,3,3a,4,5,5a,5b,6,7,7a,8,11,11a,11b,12,13,13a,13b-octadecahydro-1H-cyclopenta[a]chrysen-9-yl)-1-(fluoromethyl)cyclohex-3-ene-1-carboxylate]",AUCINF (day),[2],1393
"C=C(C)[C@@H]1CC[C@]2(NCCN3CCS(=O)(=O)CC3)CC[C@]3(C)[C@H](CC[C@@H]4[C@@]5(C)CC=C(C6=CC[C@@](CF)(C(=O)OCOC(=O)C(C)C)CC6)C(C)(C)[C@@H]5CC[C@]43C)[C@@H]12 [Example 21, (Isobutyryloxy)methyl (R)-4-((1R,3aS,5aR,5bR,7aR,11aS,11bR,13aR,13bR)-3a-((2-(1,1-dioxidothiomorpholino)ethyl)amino)-5a,5b,8,8,11a-pentamethyl-1-(prop-1-en-2-yl)-2,3,3a,4,5,5a,5b,6,7,7a,8,11,11a,11b,12,13,13a,13b-octadecahydro-1H-cyclopenta[a]chrysen-9-yl)-1-(fluoromethyl)cyclohex-3-ene-1-carboxylate]",AUCINF (day),[2],1682
"C=C(C)[C@@H]1CC[C@]2(NCC[C@]3(O)CC[C@@H](S(C)(=O)=O)CC3)CC[C@]3(C)[C@H](CC[C@@H]4[C@@]5(C)CC=C(C6=CC[C@@](COc7ncccc7C#N)(C(=O)O)CC6)C(C)(C)[C@@H]5CC[C@]43C)[C@@H]12 [Parent MI #3, (S)-1-(((3-cyanopyridin-2-yl)oxy)methyl)-4-((1R,3aS,5aR,5bR,7aR,11aS,11bR,13aR,13bR)-3a-((2-((1s,4R)-1-hydroxy-4-(methylsulfonyl)cyclohexyl)ethyl)amino)-5a,5b,8,8,11a-pentamethyl-1-(prop-1-en-2-yl)-2,3,3a,4,5,5a,5b,6,7,7a,8,11,11a,11b,12,13,13a,13b-octadecahydro-1H-cyclopenta[a]chrysen-9-yl)cyclohex-3-enecarboxylic acid]",AUC0-24h norm,[3],3.7 μg/mL *h/dose
same,AUC0-last,[3],18000 ng·h/mL
same,Bioavailability,[3],5.0 % F
same,C24,[3],0.03 µg/mL
same,Cmax,[3],1300 ng/mL
same,Tmax,[3],4.7 h
same,%AUCextra,[4],12.3%
same,AUClast,[4],449442 ng·h/mL
same,AUCtot,[4],515257 ng·h/mL
same,Bioavailability,[4],35 % F
same,Cmax,[4],6563 ng/mL
same,t(1/2),[4],58.3 h
same,%AUCextra,[5],24.8%
same,AUClast,[5],64197 ng·h/mL
same,AUCtot,[5],87808 ng·h/mL
same,Clearance,[5],0.20 mL/min/kg
same,MRT,[5],22.2 h
same,Vss,[5],0.25 L/kg
same,t(1/2),[5],16.3 h
